The source of these data is patent US7696244B2, “Compounds having activity in increasing ion transport by mutant-CFTR and uses thereof” (The Regents of the University of California, priority 2003, dated 2010).

Broadly, the Kd is the free concentration of one partner at which half of the binding sites on the other are occupied at equilibrium, for simple one-to-one binding.

In experiment [1] the target is T1, G551D-CFTR (Homo sapiens, UniProt P13569, G551D).
T1 construct: expressed in transfected cells; host or cells: FRT cells
T1 sequence (P13569 whole entry G551D): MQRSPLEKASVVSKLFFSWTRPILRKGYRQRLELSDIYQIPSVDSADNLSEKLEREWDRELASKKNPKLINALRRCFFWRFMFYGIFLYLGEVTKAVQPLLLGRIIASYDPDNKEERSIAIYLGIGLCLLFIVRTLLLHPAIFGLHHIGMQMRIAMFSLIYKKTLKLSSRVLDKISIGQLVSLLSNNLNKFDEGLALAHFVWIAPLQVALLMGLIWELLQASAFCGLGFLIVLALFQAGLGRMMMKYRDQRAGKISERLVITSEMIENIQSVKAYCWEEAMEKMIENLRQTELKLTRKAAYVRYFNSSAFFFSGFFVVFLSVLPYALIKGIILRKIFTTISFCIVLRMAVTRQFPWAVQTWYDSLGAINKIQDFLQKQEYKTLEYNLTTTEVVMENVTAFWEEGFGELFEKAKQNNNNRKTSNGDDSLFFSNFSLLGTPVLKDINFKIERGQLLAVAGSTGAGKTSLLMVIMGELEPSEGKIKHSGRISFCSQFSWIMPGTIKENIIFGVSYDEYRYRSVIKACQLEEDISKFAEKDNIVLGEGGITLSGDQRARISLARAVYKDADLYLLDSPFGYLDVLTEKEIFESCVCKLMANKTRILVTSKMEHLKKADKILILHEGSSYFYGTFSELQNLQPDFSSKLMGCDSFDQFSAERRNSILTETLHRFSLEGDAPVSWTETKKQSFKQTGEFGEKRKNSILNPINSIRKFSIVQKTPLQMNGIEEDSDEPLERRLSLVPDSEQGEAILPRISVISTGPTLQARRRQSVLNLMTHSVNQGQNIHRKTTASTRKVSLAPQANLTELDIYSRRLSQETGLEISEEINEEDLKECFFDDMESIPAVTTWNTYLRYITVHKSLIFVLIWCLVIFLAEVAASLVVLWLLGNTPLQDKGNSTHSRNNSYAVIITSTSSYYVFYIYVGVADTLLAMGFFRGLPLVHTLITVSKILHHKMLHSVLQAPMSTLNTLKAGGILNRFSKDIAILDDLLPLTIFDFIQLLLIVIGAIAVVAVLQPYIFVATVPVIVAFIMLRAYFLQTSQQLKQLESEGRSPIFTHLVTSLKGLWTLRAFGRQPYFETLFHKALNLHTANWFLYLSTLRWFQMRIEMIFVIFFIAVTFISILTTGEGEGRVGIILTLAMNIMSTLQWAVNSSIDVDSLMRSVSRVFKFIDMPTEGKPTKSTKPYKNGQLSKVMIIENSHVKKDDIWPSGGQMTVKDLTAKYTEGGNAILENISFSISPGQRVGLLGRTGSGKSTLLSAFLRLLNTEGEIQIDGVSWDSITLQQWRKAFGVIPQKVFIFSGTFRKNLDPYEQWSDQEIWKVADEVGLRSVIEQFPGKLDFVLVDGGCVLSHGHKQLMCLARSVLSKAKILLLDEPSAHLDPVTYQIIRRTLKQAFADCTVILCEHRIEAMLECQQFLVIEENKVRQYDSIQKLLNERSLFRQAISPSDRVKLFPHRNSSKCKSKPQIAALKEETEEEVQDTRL
Put plainly: Activation of G551D-CFTR in transfected FRT cells. Type of experiment: cell-based. As to conditions: positive control 50 μM + 20 μM forskolin. Here is the method:
Clonal populations of Fischer rat thyroid (FRT) epithelial cells stably co-expressing human ΔF508-CFTR and the high-sensitivity halide-sensing green fluorescent analog YFP-H148Q/I152L (Galietta et al., A.S. (2001) FEBS Lett. 499, 220-224) were generated by liposome transfection and limiting dilution with Zeocin/G418 selection. More than 100 clones were evaluated for high fluorescence and ΔF508-CFTR plasma membrane targeting after growth at 27° C. for 24 hours. […] For short-circuit measurements cells were cultured on Snapwell permeable supports (Corning-Costar) at 500,000 cells/insert. Some measurements were done using stably transfected FRT cells expressing YFP-H148Q and wildtype- or G551D-CFTR (Galietta et al., (2001) J. Biol. Chem. 276, 19723-19728). Patch clamp experiments were done on ΔF508-CFTR-expressing FRT cells plated in 35-mm Petri dishes.

The subject of experiment [2] is human bronchial epithelial cells. Put plainly: Short-circuit current in human bronchial epithelial cells. Type of experiment: cell-based. As to conditions: S.E., n=3-5. On the procedure: Using chamber experiments were performed 7-9 days after plating ΔF508-CFTR expressing FRT cells on Snapwell inserts. The basolateral solution contained (in mM): 130 NaCl, 2.7 KCl, 1.5 KH2PO4, 1 CaCl2, 0.5 MgCl2, 10 glucose, 10 Na-Hepes (pH 7.3). In the apical bathing solution 65 mM NaCl was replaced by Na gluconate, and CaCl2 was increased to 2 mM. Solutions were bubbled with air and maintained at 37° C. The basolateral membrane was permeabilized with 250 μg/ml amphotericin B. For human bronchial epithelial cells, apical and basolateral chambers contained 126 mM NaCl, 0.38 mM KH2PO4, 2.1 mM K2HPO, 1 mM MgSO4, 1 mM CaCl2, 24 mM NaHCO3, and 10 mM glucose (basolateral membrane not permeabilized). The hemichambers were connected to a DVC-1000 voltage clamp (World Precision Instruments) via Ag/AgCl electrodes and 1 M KCl agar bridges for recording short-circuit current
The mean increase in short-circuit current (Isc) was 1.2±0.1 μA/cm^2 in the human cells (S.E., n=25). In five sets of measurements on the human bronchial cells, the percentage increase in Isc after compound versus forskolin alone was 174±28 (genistein); percentages for ΔF508act-01 through ΔF508act-06 were (S.E., n=3-5): 174±34, 131±35, 40±11, 51±17, 107±42, and 104±35, respectively.

In experiment [3] the target is T2, wildtype CFTR (Homo sapiens, UniProt P13569).
T2 construct: expressed in transfected cells; host or cells: FRT cells
T2 sequence (P13569 whole entry): as the sequence (P13569 whole entry G551D) above, with D551G counted along it
Put plainly: Activation of wildtype CFTR in transfected FRT cells. The experiment is classed as cell-based. As to conditions: in the presence of forskolin 50 nM. On the procedure: (§1) Clonal populations of Fischer rat thyroid (FRT) epithelial cells stably co-expressing human ΔF508-CFTR and the high-sensitivity halide-sensing green fluorescent analog YFP-H148Q/I152L (Galietta et al., A.S. (2001) FEBS Lett. 499, 220-224) were generated by liposome transfection and limiting dilution with Zeocin/G418 selection. More than 100 clones were evaluated for high fluorescence and ΔF508-CFTR plasma membrane targeting after growth at 27° C. for 24 hours. For screening, cells were cultured on plastic in Coon's modified F12 medium supplemented with 10% fetal bovine serum, 2 mM L-glutamnine, 100 U/ml penicillin, and 100 μg/ml streptomycin, and plated on black 96-well microplates (Corning-Costar 3904) at 30,000 cells/well. For short-circuit measurements cells were cultured on Snapwell permeable supports (Corning-Costar) at 500,000 cells/insert. Some measurements were done using stably transfected FRT cells expressing YFP-H148Q and wildtype- or G551D-CFTR (Galietta et al., (2001) J. Biol. Chem. 276, 19723-19728). Patch clamp experiments were done on ΔF508-CFTR-expressing FRT cells plated in 35-mm Petri dishes.
The six ΔF508-CFTR potentiators shown in FIG. 2A were tested for activation of wildtype and G551D-CFTR in transfected FRT cells. […] Kd values for activation of wildtype CFTR by ΔF508act-01 through ΔF508act-06 were (in μM): 0.18±0.02, 1.3±0.2, 2.2±0.3, 0.02±0.005, 0.06±0.01 and 0.05±0.01, respectively. These potencies are quite different from those for ΔF508-CFTR activation.

Experiment [4] has as its target T3, human ΔF508-CFTR (Homo sapiens, UniProt P13569, DEL508-508).
T3 construct: expressed in transfected cells; host or cells: Fischer rat thyroid (FRT) epithelial cells
Briefly: Fluorescence (YFP-H148Q/I152L) I− influx assay of ΔF508-CFTR potentiator activity in FRT cells. The experiment is classed as cell-based. As to conditions: for Kd: FRT cells, 27° C. rescue, forskolin 20 μM, read-out: Kd for activation of ΔF508-CFTR from the fluorescence assay. Here is the method:
as §1
For assay of ΔF508-CFTR potentiator activity the incubator (27° C., 90% humidity, 5% CO2/95% air) was loaded with forty-to-sixty 96-well plates containing FRT cells. After an 18-24 hour incubation plates were washed 3 times with PBS (300 μl/wash) leaving 50 μl PBS. 10 μl of PBS containing 120 μM forskolin was added, and after 5 min test compounds (0.6 μl of 0.25 mM DMSO solution) were added to each well to give 2.5 μM final-compound concentrations. After 15 min, 96-well plates were transferred to a plate reader for fluorescence assay. Each well was assayed individually for I^− influx by recording fluorescence continuously (200 ms per point) for 2 s (baseline) and then for 12 s after rapid (<1 s) addition of 160 μL of isosmolar PBS in which 137 mM Cl^− was replaced by I^−.I^− influx rates were computed from initial fluorescence versus time-curve slopes (determined by 3rd order polynomial regression) after normalization for total fluorescence (background subtracted initial fluorescence).
The high-throughput screen was designed to identify compounds that activated ΔF508-CFTR when expressed at the cell plasma membrane. FRT epithelial cells co-expressing ΔF508-CFTR and a high sensitivity green fluorescent protein-based halide indicator were incubated at 27° C. for 24 h to permit ΔF508-CFTR plasma membrane targeting (FIG. 1A). After washing, forskolin (20 μM) and test compounds (2.5 μM) were added to individual wells of 96-well plates. The I^− influx assay was carried out ˜15 min later by measurement of the time course of decreasing YFP fluorescence after creation of an inwardly-directed I^− gradient. A high concentration of forskolin was used to identify ΔF508-CFTR potentiators that may interact directly with ΔF508-CFTR rather than alter cAMP concentration. Since activation of CFTR requires cAMP stimulation, forskolin, an enhancer of cAMP, was added to the in vitro models in order to mimic the cellular cAMP stimulation.
The strong potentiators were subjected to secondary analysis to select a subset for further analysis. None of the strong potentiators stimulated I^− influx in the fluorescence assay using FRT null cells (expressing YFP-H148Q/[…] alone) or in ΔF508-CFTR expressing cells in the absence of forskolin. The increased I^− influx for each potentiator was blocked by the thiazolidinone CFTR inhibitor CFTRinh-172 (19). […] Several of these compounds are shown in FIG. 6, along with data as to the activity of these compounds.

Experiment [5] concerns cellular cAMP content. Put plainly: Cellular cAMP content in FRT cells (BIOTRAK enzymatic immunoassay). The experiment is classed as cell-based, rat. Here is the method: (§2) cAMP activity was measured using the BIOTRAK enzymatic immunoassay (Amersham) on FRT cell lysates after incubation with the compound of interest for 10 min without or with 0.5 μM forskolin. Phosphatase activity was determined on cell homogenates using a non-radioactive assay kit (Promega) as described previously (Galietta et al., (2001) J. Biol. Chem. 276, 19723-19728).
(§3) The compounds shown in FIGS. 2A and 3A were assayed for cAMP stimulation and phosphatase inhibition. Cellular cAMP content was measured in FRT cells in the presence of a low forskolin concentration (0.5 μM) with or without test compounds. […] Maximal forskolin (20 μM) gave 1350±17 finol/well. The ΔF508 potentiators at 5 μM gave no increase in cellular cAMP content, except for ΔF508act-04 and ΔF508act-06, which gave modest cAMP elevations (212±17 and 281±37 finol/well, respectively). […] The ΔF508-CFTR potentiators (25 μM, 48 h) were judged to be non-toxic to FRT cells by the dihydrorhodamine assay (Wang et al., (2000) J. Physiol. 524:637-638) and by unimpaired cell growth.

Experiment [6] relates to phosphatase activity. Briefly: Phosphatase activity assay on cell homogenates. Type of experiment: biochemical. Here is the method:
as §2, §3

The mark [7] stands for this setting: compound 5 μM, forskolin 0.5 μM, control 129±7.

T3 sequence (P13569 with tags, fused parts or gaps DEL508-508): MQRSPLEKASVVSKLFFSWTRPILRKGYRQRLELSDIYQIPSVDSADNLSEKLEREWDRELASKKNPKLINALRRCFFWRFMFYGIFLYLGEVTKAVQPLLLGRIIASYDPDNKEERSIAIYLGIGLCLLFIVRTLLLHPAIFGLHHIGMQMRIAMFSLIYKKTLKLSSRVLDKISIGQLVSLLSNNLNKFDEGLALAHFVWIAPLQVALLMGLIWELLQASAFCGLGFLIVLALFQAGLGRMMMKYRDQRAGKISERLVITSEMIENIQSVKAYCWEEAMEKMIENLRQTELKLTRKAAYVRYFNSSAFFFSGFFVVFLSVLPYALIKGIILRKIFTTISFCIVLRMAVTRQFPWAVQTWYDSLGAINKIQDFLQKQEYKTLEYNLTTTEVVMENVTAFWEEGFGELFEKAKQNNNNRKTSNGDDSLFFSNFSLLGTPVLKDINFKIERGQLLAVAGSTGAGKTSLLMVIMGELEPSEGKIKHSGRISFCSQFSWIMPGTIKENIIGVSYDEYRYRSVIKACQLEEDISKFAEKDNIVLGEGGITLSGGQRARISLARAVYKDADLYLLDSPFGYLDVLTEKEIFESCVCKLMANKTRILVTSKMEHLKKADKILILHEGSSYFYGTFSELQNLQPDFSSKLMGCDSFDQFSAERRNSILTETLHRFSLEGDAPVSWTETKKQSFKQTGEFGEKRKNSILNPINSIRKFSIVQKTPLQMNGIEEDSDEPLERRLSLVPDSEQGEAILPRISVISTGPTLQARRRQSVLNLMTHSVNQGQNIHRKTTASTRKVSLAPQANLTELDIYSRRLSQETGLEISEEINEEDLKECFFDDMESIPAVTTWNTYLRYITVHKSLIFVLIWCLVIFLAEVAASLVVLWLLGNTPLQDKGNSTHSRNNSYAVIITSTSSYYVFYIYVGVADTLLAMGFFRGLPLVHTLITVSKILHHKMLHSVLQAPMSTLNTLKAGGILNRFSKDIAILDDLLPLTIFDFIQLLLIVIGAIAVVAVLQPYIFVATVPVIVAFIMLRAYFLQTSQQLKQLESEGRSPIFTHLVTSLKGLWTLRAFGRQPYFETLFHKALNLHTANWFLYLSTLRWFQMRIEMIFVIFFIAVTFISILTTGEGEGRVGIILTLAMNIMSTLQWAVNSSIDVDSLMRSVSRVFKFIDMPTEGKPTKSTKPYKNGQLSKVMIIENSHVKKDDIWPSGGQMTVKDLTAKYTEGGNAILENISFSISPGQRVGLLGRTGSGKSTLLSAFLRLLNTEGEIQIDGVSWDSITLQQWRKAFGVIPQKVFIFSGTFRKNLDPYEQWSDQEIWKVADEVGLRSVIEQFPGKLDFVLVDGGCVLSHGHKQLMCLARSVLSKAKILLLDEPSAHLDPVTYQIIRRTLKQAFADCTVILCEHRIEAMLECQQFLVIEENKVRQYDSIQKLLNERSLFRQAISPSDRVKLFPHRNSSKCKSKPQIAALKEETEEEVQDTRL

On to `O=c1c(-c2ccc(O)cc2)coc2cc(O)cc(O)c12` [genistein, reference compound], for which the G551D-CFTR activation entry in experiment [1] was “strong activation”. In experiment [2], the “percentage increase in Isc after compound versus forskolin alone” value (from here on “percentage increase in Isc”) was determined as 174±28%.
Regarding `COC(=O)C1=C(C)NC(C)=C(C(=O)OC)C1c1ccc(C(C)C)cc1` [ΔF508act-05, 4-(4-Isopropyl-phenyl)-2,6-dimethyl-1,4-dihydro-pyridine-3,5-dicarboxylic acid dimethyl ester], the Kd in experiment [3] was 60 ± 10 nM; in experiment [4], 100 ± 10 nM. Further, the “percentage increase in Isc” value in experiment [2] is recorded as 107±42%.
On to `COc1ccc(-n2c(C)cc(C=C3C(=O)NC(=O)N(Cc4ccco4)C3=O)c2C)cc1` [ΔF508act-01, 1-Furan-2-yhnethyl-5-[1-(4-methoxy-phenyl)-2,5-dimethyl-1H-pyrrol-3-ylmethylene]-pyrimidine-2,4,6-trione], for which the “percentage increase in Isc” value in experiment [2] was 174±34%. Besides, the Kd in experiment [4] was found to be 1300 ± 100 nM.
For `CC(C)(C)c1ccc(Oc2c(N)ccc3c2C(=O)c2ccccc2C3=O)cc1` [ΔF508act-04, 2-Amino-1-(4-tert-butyl-phenoxy)-anthraquinone], the cAMP content in experiment [5] (setting [7]) came to 212±17 finol/well. Also, the results for the Kd in experiment [3] and in experiment [4] were 20 ± 5 nM and 870 ± 100 nM, respectively. Also, in experiment [2], the “percentage increase in Isc” value came out at 51±17%.
Turning to `NC(=O)c1c(NC(=O)c2ccccc2Cl)sc2c1CCCC2` [ΔF508act-02, 2-(2-Chloro-benzoylamino)-4,5,6,7-tetrahydro-benzo[b]thiophene-3-carboxylic acid amide], the values for the Kd in experiment [3] and in experiment [4] were 1300 ± 200 nM and 180 ± 30 nM, respectively. The “percentage increase in Isc” value in experiment [2] worked out at 131±35%.
For `NC(=O)c1oc2ccccc2c1NC(=O)c1ccccc1` [ΔF508act-06, 3-Benzoylamino-benzofuran-2-carboxylic acid amide], the cAMP content in experiment [5] (setting [7]) stood at 281±37 finol/well. For the same compound, the Kd stood at 50 ± 10 nM in experiment [3] and 650 ± 80 nM in experiment [4]. Moreover, the “percentage increase in Isc” value in experiment [2] was 104±35%.
Consider `O=C(O)c1ccc(/C=C2\SC(=S)N(c3cccc(C(F)(F)F)c3)C2=O)cc1` [CFTRinh-172, reference compound], for which the “effect on potentiator-increased I− influx” value in experiment [4] is listed as “blocked”.
In the case of `Cc1cc(Br)c2[nH]c3c(c2c1)CCCC3=O` [ΔF508act-03, 8-Bromo-6-methyl-2,3,4,9-tetrahydro-carbazol-1-one], the Kd in experiment [3] is 2200 ± 300 nM; in experiment [4], 700 ± 40 nM. In addition, the “percentage increase in Isc” value in experiment [2] was found to be 40±11%.
For the compound `C=C1[C@@H](O)[C@@H]2O[C@]3(CC[C@H](/C=C/[C@@H](C)[C@@H]4CC(C)=C[C@@]5(O[C@H](C[C@@](C)(O)C(=O)O)CC[C@H]5O)O4)O3)CC[C@H]2O[C@@H]1[C@@H](O)C[C@H](C)[C@H]1O[C@@]2(CCCCO2)CC[C@H]1C` [okadaic acid], the “inhibition of phosphatase activity” value in experiment [6] is > 90%. The phosphatase activity in experiment [6] (control 703±69) is on record as 56±15 pmol free phosphate/μg protein.
As to `C=C[C@@]1(C)CC(=O)[C@]2(O)[C@@]3(C)[C@@H](O)CCC(C)(C)[C@@H]3[C@H](O)[C@H](OC(C)=O)[C@@]2(C)O1` [forskolin, reference compound], the cAMP content in experiment [5] (maximal forskolin 20 μM) is listed as 1350±17 finol/well.
